Assays:
[1] = target: T1, AceAPa (ICLPa) (Pseudomonas aeruginosa, UniProt Q9I0K4); test: phenylhydrazine-based isocitrate lyase assay, […] nm; type: biochemical; details: 4 mM DL-isocitric acid, 25 mM imidazole pH 7.0, 10 mM EDTA, 5 mM MgCl2
T1 construct: gene PA2634; full-length, N-terminal His6 tag TEV-cleaved (pET-19m), expressed in E. coli
T1 sequence (Q9I0K4 1-531): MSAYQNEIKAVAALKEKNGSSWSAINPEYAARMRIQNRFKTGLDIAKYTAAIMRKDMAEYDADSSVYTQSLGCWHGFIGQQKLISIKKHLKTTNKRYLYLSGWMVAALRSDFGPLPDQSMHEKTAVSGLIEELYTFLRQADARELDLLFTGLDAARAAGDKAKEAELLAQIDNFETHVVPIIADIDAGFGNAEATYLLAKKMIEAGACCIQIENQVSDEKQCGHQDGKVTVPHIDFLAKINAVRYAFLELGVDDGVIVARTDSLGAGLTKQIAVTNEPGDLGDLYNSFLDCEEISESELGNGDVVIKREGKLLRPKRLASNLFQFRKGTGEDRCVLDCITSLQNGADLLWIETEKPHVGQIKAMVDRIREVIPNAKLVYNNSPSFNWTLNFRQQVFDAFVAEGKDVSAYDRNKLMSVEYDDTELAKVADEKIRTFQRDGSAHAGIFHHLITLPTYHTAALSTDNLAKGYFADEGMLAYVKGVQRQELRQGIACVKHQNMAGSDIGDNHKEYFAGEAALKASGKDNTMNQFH

[2] = target: T1, AceAPa (ICLPa); test: LDH-coupled assay, NADH oxidation at […] nm; type: biochemical; details: 50 mM Hepes pH 7.5, 2.5 mM MgCl2, 5 mM DTT, 37 °C; racemic threo substrate
[3] = target: T2, PrpBPa (Pseudomonas aeruginosa, UniProt Q9I5E2); test: LDH-coupled assay, inhibitor screen, relative activity; type: biochemical; details: 1 mM compound, 5 min preincubation; pH 7.5, Mg2+, DTT, 37 °C
T2 construct: gene prpB; full-length, N-terminal His6 tag TEV-cleaved (pET-19m), expressed in E. coli; homotetramer (dimer of dimers)
T2 sequence (Q9I5E2 1-298): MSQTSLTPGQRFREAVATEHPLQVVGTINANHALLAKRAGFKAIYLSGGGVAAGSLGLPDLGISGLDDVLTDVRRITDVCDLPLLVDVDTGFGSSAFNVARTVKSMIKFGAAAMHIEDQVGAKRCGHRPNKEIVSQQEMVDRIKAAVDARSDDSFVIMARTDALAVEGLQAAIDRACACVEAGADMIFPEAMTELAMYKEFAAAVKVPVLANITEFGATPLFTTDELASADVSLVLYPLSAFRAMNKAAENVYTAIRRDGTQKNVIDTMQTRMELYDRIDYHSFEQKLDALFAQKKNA

[4] = substrate: CC(O)(C(=O)O)C(CC(=O)O)C(=O)O; test: purified protein; type: biochemical, Pseudomonas aeruginosa; details: 50 mM Hepes pH 7.5, 2.5 mM MgCl2, 5 mM DTT, 37 °C, DTT-pretreated enzyme, racemic threo substrate
[5] = target: the molecule itself; test: crystal structure; apo-PrpBPa (1.8 Å) and PrpBPa with Mg2+/pyruvate (1.76 Å, crystal soak); tetramer in the asymmetric unit; crystals from Tris-HCl pH 8.5, PEG 4000, LiSO4, 5 mM DTT, 19 °C

O=C(O)CC(C(=O)O)C(O)C(=O)O (racemic) [DL isocitric acid]
phenylhydrazine-based isocitrate lyase assay, 324 nm [1]: could catalyze the cleavage of isocitrate into glyoxylate and succinate

CC(O)(C(=O)O)C(CC(=O)O)C(=O)O (racemic) [threo-2-methylisocitrate]
LDH-coupled assay, NADH oxidation at 340 nm [2]: purified AceAPa demonstrated robust 2-MICL activity in vitro

O=C(O)CC[N+](=O)[O-] [3-nitropropionic acid]
relative activity at 1 mM [3]: 3-nitropropionic acid was also a potent inhibitor of PrpBPa

O=C[C@H](O)COP(=O)(O)O [D-glyceraldehyde 3-phosphate]
relative activity at 1 mM [3]: α-ketoglutarate, cis-aconitic acid, and D-glyceraldehyde 3-phosphate were all potent inhibitors of PrpBPa

O=C(O)/C=C\C(=O)O [Maleic acid]
relative activity at 1 mM [3]: Maleic acid was a nonphysiological inhibitor

O=C(O)/C=C(/CC(=O)O)C(=O)O [cis-aconitic acid]
relative activity at 1 mM [3]: α-ketoglutarate, cis-aconitic acid, and D-glyceraldehyde 3-phosphate were all potent inhibitors of PrpBPa

O=C(O)CCC(=O)C(=O)O [α-ketoglutarate]
relative activity at 1 mM [3]: α-ketoglutarate, cis-aconitic acid, and D-glyceraldehyde 3-phosphate were all potent inhibitors of PrpBPa

B1: 2-methylisocitrate lyase PrpB from Pseudomonas aeruginosa (PrpBPa) (enzyme, Pseudomonas aeruginosa PAO1)
chain: MSQTSLTPGQRFREAVATEHPLQVVGTINANHALLAKRAGFKAIYLSGGGVAAGSLGLPDLGISGLDDVLTDVRRITDVCDLPLLVDVDTGFGSSAFNVARTVKSMIKFGAAAMHIEDQVGAKRCGHRPNKEIVSQQEMVDRIKAAVDARSDDSFVIMARTDALAVEGLQAAIDRACACVEAGADMIFPEAMTELAMYKEFAAAVKVPVLANITEFGATPLFTTDELASADVSLVLYPLSAFRAMNKAAENVYTAIRRDGTQKNVIDTMQTRMELYDRIDYHSFEQKLDALFAQKKNA
notes: 2-methylisocitrate lyase PrpB, Pseudomonas aeruginosa PAO1, locus PA0796, PCR-amplified from PAO1 genomic DNA and cloned into pET-19m; 32.1 kDa; In the crystal structures the termini and the active site loop (residues 121-131) are not resolved; also called 2-MICL; PA0796; source: E. coli, purified (Ni-NTA; His6 tag removed with TEV protease); not shown: His6, N-terminal, cleaved
Km [4]: 632 ± 158 µM | kcat [4]: 48.2 ± 4.2 s⁻¹ | stoichiometry N [5]: 4

— publication PMC11982470, “The 2-methylcitrate cycle and the glyoxylate shunt in Pseudomonas aeruginosa are linked through enzymatic redundancy” (The Journal of Biological Chemistry, 2025)
